This passage reports IC50 results from patent US20090286791A1, “Amide Compounds” (TAKEDA PHARMACEUTICAL COMPANY LIMITED, priority 2001, published 2009).

The target of the experiment is T1, human DGAT1 (Homo sapiens, UniProt O75907).
T1 construct: made in house; host or cells: Sf9 insect cells (baculovirus BAC-DGAT1, pFASTBAC1); microsome fraction
T1 sequence (O75907 1-488): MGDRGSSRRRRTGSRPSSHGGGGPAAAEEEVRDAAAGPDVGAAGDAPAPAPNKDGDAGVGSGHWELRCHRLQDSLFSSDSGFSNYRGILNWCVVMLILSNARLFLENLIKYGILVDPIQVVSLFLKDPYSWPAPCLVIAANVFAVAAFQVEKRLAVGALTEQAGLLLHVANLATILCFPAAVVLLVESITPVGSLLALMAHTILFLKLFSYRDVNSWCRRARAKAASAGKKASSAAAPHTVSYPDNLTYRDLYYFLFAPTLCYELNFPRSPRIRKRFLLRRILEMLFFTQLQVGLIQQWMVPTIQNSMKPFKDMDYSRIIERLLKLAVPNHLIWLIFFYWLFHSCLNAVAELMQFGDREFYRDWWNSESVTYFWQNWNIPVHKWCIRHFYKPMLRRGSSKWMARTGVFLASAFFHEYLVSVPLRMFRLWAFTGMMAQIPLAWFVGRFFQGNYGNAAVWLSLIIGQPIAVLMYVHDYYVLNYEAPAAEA
The experiment can be described thus: DGAT inhibitory activity: [14C]-triglyceride synthesis with DGAT1 high expression Sf9 microsome. Type of experiment: biochemical. The following applies: 25 μM dioleoylglycerol, 25 μM [14C]-Oleoyl-CoA, 32° C., 20 min, read-out: hDGAT1 IC50. Here is the method: The primer nucleotide sequence is shown below.
The PCR reaction was conducted using a KOD-plus kit (TOYOBO). The obtained PCR product was electrophoresed on agarose gel (1%), the DNA fragment amplified by PCR was recovered from the gel, and then digested with restriction enzymes EcoRI and SpeI. […] Furthermore, using BAC-TO-BAC Baculovirus Expression System (Invitrogen), recombinant baculovirus BAC-DGAT1 was prepared.
SF9 cells were sown at 1×10^6 cells/ml on Sf-900II SFM medium (1 L, Invitrogen) containing 10% fetal calf serum (Trace), 50 mg/L gentamicin (Invitrogen) and 0.1% Pluronic F-68 (Invitrogen), and shaking culture was performed using a 2 L volume Erlenmeyer flask at 27° C., 100 rpm. After culturing for 24 hrs, recombinant baculovirus BAC-DGAT1 (6.7 mL) was added, and the mixture was further cultured for 3 days. The culture medium was centrifuged at 2,000 rpm for 5 min to give virus-infected cells. The infected cells were washed with a phosphate buffered saline (Invitrogen), centrifuged under the same conditions, and the cells were preserved at −80° C. The cryopreserved cells were thawed in ice, suspended in buffer A (50 mM Tris buffer (30 mL, pH 7.4) containing 20% glycerol, 0.15 M NaCl) supplemented with Complete Protease Inhibitor (Boehringer), and ruptured 3 times with a Polytron homogenizer (Kinematica) at 20,000 rpm for 30 sec. The Sf9 microsome fractions were obtained by a conventional method and cryopreserved at −80° C. as a DGAT1 high expression Sf9 microsome.
As a DGAT1 reaction buffer, a solution having a composition of 100 mM Tris-HCl (pH 7.5), 250 mM sucrose, 150 mM MgCl2, 0.01% bovine serum albumin (BSA) was used. […] A mixture of 300 μL of chloroform:methanol (=1:2) was added to the reaction mixture to quench the reaction. The reaction mixture was sufficiently mixed and distilled water (200 μL) was added to partition the mixture between a chloroform layer (lower layer) and an aqueous layer (upper layer). […] The developed TLC plate was dried, contacted with a BAS imaging plate (manufactured by FUJIFIIM) and measured with BAS2500 (manufactured by FUJIFILM) 16 hr later to numerically show the amount of [^14C]-triglyceride (TG amount) produced during the reaction. The inhibitory rate was calculated by the following formula:
Inhibitory rate (%)=(1−(TG amount with addition of test compound−blank TG amount)/(control TG amount−blank TG amount))×100
The count of the triglyceride produced in the solution reacted without addition of the compound was used as a “control TG amount”, and the count of the triglyceride produced in the solution reacted without addition of the test compound and DGAT1 high expression Sf9 microsome was used as a “blank TG amount”.

As usually defined, the IC50 is the concentration that gives 50% inhibition. Turning to `CCOc1ccc(C(=O)NCCNC(=O)c2cn(-c3cccc(OCC)n3)nc2C(F)(F)F)cc1` [B6, N-(2-(4-ethoxybenzamido)ethyl)-1-(6-ethoxypyridin-2-yl)-3-(trifluorometh-yl)-1H-pyrazole-4-carboxamide], the IC50 lay within 100 to 1000 nM.
Next, `CCOc1ccc(C(=O)NC[C@@H](NC(=O)c2cn(-c3ccccc3)nc2C(F)(F)F)C(=O)OC)cc1` [C15]: 100 to 1000 nM.
Next, `CN(C)CCNc1ccc(C(=O)NCCNC(=O)c2cn(-c3ccccc3)nc2C(F)(F)F)cn1` [Example A11, 6-(2-(dimethyl-amino)ethylamino)-N-(2-(1-phenyl-3-(trifluoromethyl)-1H-pyrazole-4-carboxamido)ethyl) nicotinamide]: 1000 to 10000 nM; `O=C(NCCNC(=O)c1cn(-c2ccccc2)nc1C(F)(F)F)c1ccc(-n2cccn2)nc1` [Example A12, N-(2-(1-phenyl-3-(trifluoromethyl)-1H-pyrazole-4-carboxamido)ethyl)-6-(1H-pyrazol-1-yl) nicotinamide]: less than 100 nM.
In the case of `CN(C)c1ccc(C(=O)NCCNC(=O)c2cn(-c3ccccc3)nc2C(F)(F)F)cn1` [Example A15, 6-(dimethylamino)-N-(2-(1-phenyl-3-(trifluoromethyl)-1H-pyrazole-4-carboxamido)ethyl)nicotinamide] it was 100 to 1000 nM; in that of `CCCCc1ccc(C(=O)NCCNC(=O)c2cn(-c3ccccc3)nc2C(F)(F)F)nc1` [Example A24, 5-butyl-N-(2-(1-phenyl-3-(trifluoromethyl)-1H-pyrazole-4-carboxamido)ethyl)picolinamide], 100 to 1000 nM.
As for `O=C(NCCNC(=O)c1cn(-c2ccccc2)nc1C(F)(F)F)c1ccc(OCCC(F)(F)F)nc1` [Example A42, N-(2-(1-phenyl-3-(trifluoromethyl)-1H-pyrazole-4-carboxamido)ethyl)-6-(3,3,3-trifluoropropoxy)nicotinamide], the 50% inhibitory concentration (IC50) is less than 100 nM.
As for `O=C(NCCNC(=O)c1cn(-c2ccccc2)c2ccccc12)c1ccc(OCC(F)(F)F)nc1` [Example A53, 1-phenyl-N-(2-(6-(2,2,2-trifluoroethoxy)nicotinamido)ethyl)-1H-indole-3-carboxamide], the IC50 is less than 100 nM.
In the case of `COc1nn(-c2ccccc2)cc1C(=O)NCCNC(=O)c1ccc(OCC(F)(F)F)nc1` [Example A55, N-(2-(3-methoxy-1-phenyl-1H-pyrazole-4-carboxamido)ethyl)-6-(2,2,2-trifluoroethoxy) nicotinamide] it was 100 to 1000 nM; in that of `CN(C)c1nn(-c2ccccc2)cc1C(=O)NCCNC(=O)c1ccc(OCC(F)(F)F)nc1` [Example A58, N-(2-(3-(dimethylamino)-1-phenyl-1H-pyrazole-4-carboxamido)ethyl)-6-(2,2,2-trifluoroethoxy) nicotinamide], 1000 to 10000 nM; in that of `CCCc1cc(CCC)c(C(=O)NCCNC(=O)c2cn(-c3ccccc3)nc2C(F)(F)F)cn1` [Example A76, N-(2-(1-phenyl-3-(trifluoro-methyl)-1H-pyrazole-4-carboxamido)ethyl)-4,6-di-propylnicotinamide], 100 to 1000 nM.
Next, `O=C(NCCNC(=O)c1cn(C(=O)c2ccccc2)c2ccccc12)c1ccc(OCC(F)(F)F)nc1` [Example A82, 1-benzoyl-N-(2-(6-(2,2,2-trifluoroethoxy)nicotinamido)ethyl)-1H-indole-3-carboxamide]: less than 100 nM; `O=C(NCCNC(=O)c1cn(-c2ccccc2)nc1C(F)(F)F)c1ccc(S(=O)(=O)c2ccccc2)nc1` [Example A86, N-(2-(1-Phenyl-3-(trifluoromethyl)-1H-pyrazole-4-carboxamido)ethyl)-6-(phenylsulfonyl)nicotinamide]: 100 to 1000 nM.
Regarding `N#Cc1cc(C(=O)NCCNC(=O)c2cn(-c3ccccc3)nc2C(F)(F)F)cnc1OCC(F)(F)F` [Example A87, 5-Cyano-N-(2-(1-phenyl-3-(trifluoromethyl)-1H-pyrazole-4-carboxamido)ethyl)-6-(2,2,2-trifluoroethoxy)nicotinamide], the IC50 was 100 to 1000 nM.
Regarding `O=C(NCCNC(=O)c1cn(-c2ccccc2)nc1C(F)(F)F)c1ccc(-c2ncon2)nc1` [Example A96, 6-(1,2,4-Oxadiazol-3-yl)-N-(2-(1-phenyl-3-(trifluoromethyl)-1H-pyrazole-4-carboxamido)ethyl)nicotinamide], the IC50 fell in the range of 100 to 1000 nM.
Turning to `O=C(NCCNC(=O)c1cn(-c2ccccc2)nc1C(F)(F)F)c1ccc(-c2noc(C(F)(F)F)n2)nc1` [Example A98, N-(2-(1-Phenyl-3-(trifluoromethyl)-1H-pyrazole-4-carboxamido)ethyl)-6-(5-(trifluoromethyl)-1,2,4-oxadiazol-3-yl)nicotinamide], the IC50 was less than 100 nM.
In the case of `CC(=O)Nc1ccc(C(=O)NCCNC(=O)c2cn(-c3ccccc3)nc2C(F)(F)F)cn1` [Example A99, 6-Acetamido-N-(2-(1-phenyl-3-(trifluoromethyl)-1H-pyrazole-4-carboxamido)ethyl)nicotinamide] it was 1000 to 10000 nM; in that of `CC(C)c1nc(-c2ccc(C(=O)NCCNC(=O)c3cn(-c4ccccc4)nc3C(F)(F)F)cn2)no1` [Example A103, 6-(5-isopropyl-1,2,4-oxadiazol-3-yl)-N-(2-(1-phenyl-3-(trifluoromethyl)-1H-pyrazole-4-carboxamido)ethyl)nicotinamide], less than 100 nM.
For `CCOc1ccc(C(=O)NCCNC(=O)c2cn(-c3ccc4[nH]ccc4c3)nc2C(F)(F)F)cc1` [Example B1, N-(2-(4-Ethoxybenzamido)ethyl)-1-(1H-indol-5-yl)-3-(trifluoromethyl)-1H-pyrazole-4-carboxamide], the IC50 was less than 100 nM.
In the case of `CCOc1ccc(C(=O)N2CCCC2CNC(=O)c2cn(-c3ccccc3)nc2C(F)(F)F)cc1` (stereo not shown) [Example C11, N-((1-(4-ethoxybenzoyl)pyrrolidin-2-yl)methyl)-1-phenyl-3-(trifluoromethyl)-1H-pyrazole-4-carboxamide] it was 1000 to 10000 nM.
Next, `CCOc1ccc(C(=O)NCCNC(=O)c2cc(-c3ccccc3)cc(-c3ccccc3)n2)cc1` [Example D1, N-(2-(4-Ethoxybenzamido)ethyl)-4,6-diphenylpicolinamide]: 1000 to 10000 nM; `CCOc1ccc(C(=O)NCCNC(=O)c2nn(-c3ccccc3)nc2C)cc1` [Example D6, N-(2-(4-ethoxybenzamido)ethyl)-5-methyl-2-phenyl-1H-1,2,3-triazole-4-carboxamide]: 1000 to 10000 nM.
